Assays:
[1] = test system: cheatgrass; experiment: Test B preemergence/postemergence greenhouse plant response rating 0 to 10; format: in vivo, Bromus secalinus; settings: for Plant response rating, Cheatgrass: 0 to 10 scale
Summary of the method: (§1)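 Planted seeds are treated preemergence with compound dissolved in a non-phytotoxic solvent, while postemergence applications go onto plants of two to eighteen cm. Plants stay in the greenhouse twelve to sixteen days and are then rated visually relative to controls.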

[2] = test system: sugar beet; experiment: Test C preemergence/postemergence greenhouse plant response rating 0 to 100; format: in vivo, Beta vulgaris; settings: POSTEMERGENCE; for Plant response rating, Sugar beet: 0 to 100 scale
Summary of the method: (§2)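 Compounds in non-phytotoxic solvent applied preemergence to sandy loam one day after planting, postemergence at the 1–4 leaf stage, or to ~2.5 cm floodwater over silt loam.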

[3] = test system: bedstraw; experiment: as above; format: in vivo, Galium aparine; settings: POSTEMERGENCE; for Plant response rating, Bedstraw: 0 to 100 scale
Summary of the method: as §2

[4] = test system: rape; experiment: Test B preemergence/postemergence greenhouse plant response rating 0 to 10; format: in vivo, Brassica napus; settings: 0 to 10 scale
Summary of the method: as §1

[5] = test system: barley; experiment: as above; format: in vivo, Hordeum vulgare; settings: for Plant response rating, Barley: 0 to 10 scale
Summary of the method: as §1

[6] = test system: barley; experiment: Test C preemergence/postemergence greenhouse plant response rating 0 to 100; format: in vivo, Hordeum vulgare; settings: POSTEMERGENCE; for Plant response rating Barley Igri: 0 to 100 scale
Summary of the method: as §2

[7] = test system: wild buckwheat; experiment: as above; format: in vivo, Polygonum convolvulus; settings: POSTEMERGENCE; for Plant response rating, Wild buckwheat: 0 to 100 scale
Summary of the method: as §2

[8] = test system: sorghum; experiment: Test B preemergence/postemergence greenhouse plant response rating 0 to 10; format: in vivo, Sorghum bicolor; settings: 0 to 10 scale
Summary of the method: as §1

[9] = test system: bedstraw; experiment: as above; format: in vivo, Galium aparine; settings: for Plant response rating, Bedstraw: 0 to 10 scale
Summary of the method: as §1

[10] = test system: rice; experiment: as above; format: in vivo, Oryza sativa; settings: 0 to 10 scale
Summary of the method: as §1

[11] = test system: sorghum; experiment: Test C preemergence/postemergence greenhouse plant response rating 0 to 100; format: in vivo, Sorghum bicolor; settings: POSTEMERGENCE; for Plant response rating, Sorghum: 0 to 100 scale
Summary of the method: as §2

[12] = test system: duck salad; experiment: Test C flood test plant response rating 0 to 100; format: in vivo, Heteranthera limosa; settings: for Plant response rating Duck salad: flood test species listed under POSTEMERGENCE, 0 to 100 scale
Summary of the method: as §2

[13] = test system: ryegrass; experiment: Test C preemergence/postemergence greenhouse plant response rating 0 to 100; format: in vivo, Lolium multiflorum; settings: POSTEMERGENCE; for Plant response rating Ryegrass: 0 to 100 scale
Summary of the method: as §2

[14] = test system: cotton; experiment: Test B preemergence/postemergence greenhouse plant response rating 0 to 10; format: in vivo, Gossypium hirsutum; settings: for Plant response rating, Cotton: 0 to 10 scale
Summary of the method: as §1

[15] = test system: blackgrass; experiment: Test C preemergence/postemergence greenhouse plant response rating 0 to 100; format: in vivo, Alopecurus myosuroides; settings: POSTEMERGENCE; for Plant response rating, Blackgrass: 0 to 100 scale
Summary of the method: as §2

[16] = test system: pigweed; experiment: as above; format: in vivo, Amaranthusretroflexus; settings: POSTEMERGENCE; for Plant response rating Pigweed: 0 to 100 scale
Summary of the method: as §2

[17] = test system: wheat; experiment: Test B preemergence/postemergence greenhouse plant response rating 0 to 10; format: in vivo, Triticum aestivum; settings: 0 to 10 scale
Summary of the method: as §1

[18] = test system: blackgrass; experiment: as above; format: in vivo, Alopecurus myosuroides; settings: for Plant response rating, Blackgrass: 0 to 10 scale
Summary of the method: as §1

SMILES: COC(=O)C(C)Oc1cc(-c2nn3c(c2Cl)CCCC3)c(F)cc1Cl (stereo not drawn) [Compound 28]
- Plant response rating (0 to 10 scale), Cheatgrass ([1]; POSTEMERGENCE, Rate 50 g/ha): 6
- Plant response rating, Cheatgrass ([1]; POSTEMERGENCE, Rate 200 g/ha): 9
- Plant response rating, Cheatgrass ([1]; PREEMERGENCE, Rate 50 g/ha): 4
- Plant response rating, Cheatgrass ([1]; Rate 200 g/ha, PREEMERGENCE): 6
- Plant response rating, Sugar beet ([2]; 62 g/ha): 100
- Plant response rating, Sugar beet ([2]; 250 g/ha): 100
- Plant response rating (0 to 100), Sugar beet ([2]; Rate 4 g/ha): 100
- Plant response rating (0 to 100), Sugar beet ([2]; Rate 16 g/ha): 100
- Plant response rating, Bedstraw ([3]; 62 g/ha): 100
- Plant response rating, Bedstraw ([3]; 250 g/ha): 100
- Plant response rating (0 to 100), Bedstraw ([3]; Rate 4 g/ha): 90
- Plant response rating (0 to 100), Bedstraw ([3]; Rate 16 g/ha): 100
- Plant response rating, Rape ([4]; POSTEMERGENCE, Rate 50 g/ha): 10
- Plant response rating, Rape ([4]; POSTEMERGENCE, Rate 200 g/ha): 10
- Plant response rating, Rape ([4]; PREEMERGENCE, Rate 50 g/ha): 9
- Plant response rating, Rape ([4]; Rate 200 g/ha, PREEMERGENCE): 10
- Plant response rating (0 to 10 scale), Barley ([5]; POSTEMERGENCE, Rate 50 g/ha): 6
- Plant response rating, Barley ([5]; POSTEMERGENCE, Rate 200 g/ha): 6
- Plant response rating, Barley ([5]; PREEMERGENCE, Rate 50 g/ha): 0
- Plant response rating, Barley ([5]; Rate 200 g/ha, PREEMERGENCE): 0
- Plant response rating Barley Igri ([6]; 62 g/ha): 40
- Plant response rating Barley Igri ([6]; 250 g/ha): 50
- Plant response rating (0 to 100), Barley Igri ([6]; Rate 4 g/ha): 20
- Plant response rating (0 to 100), Barley Igri ([6]; Rate 16 g/ha): 30
- Plant response rating, Wild buckwheat ([7]; 62 g/ha): 70
- Plant response rating, Wild buckwheat ([7]; 250 g/ha): 90
- Plant response rating (0 to 100), Wild buckwheat ([7]; Rate 4 g/ha): 30
- Plant response rating (0 to 100), Wild buckwheat ([7]; Rate 16 g/ha): 60
- Plant response rating, Sorghum ([8]; POSTEMERGENCE, Rate 50 g/ha): 7
- Plant response rating, Sorghum ([8]; POSTEMERGENCE, Rate 200 g/ha): 9
- Plant response rating, Sorghum ([8]; PREEMERGENCE, Rate 50 g/ha): 0
- Plant response rating, Sorghum ([8]; Rate 200 g/ha, PREEMERGENCE): 0
- Plant response rating (0 to 10 scale), Bedstraw ([9]; POSTEMERGENCE, Rate 50 g/ha): 9
- Plant response rating, Bedstraw ([9]; POSTEMERGENCE, Rate 200 g/ha): 10
- Plant response rating, Bedstraw ([9]; PREEMERGENCE, Rate 50 g/ha): 8
- Plant response rating, Bedstraw ([9]; Rate 200 g/ha, PREEMERGENCE): 10
- Plant response rating, Rice ([10]; POSTEMERGENCE, Rate 50 g/ha): 5
- Plant response rating, Rice ([10]; POSTEMERGENCE, Rate 200 g/ha): 7
- Plant response rating, Rice ([10]; PREEMERGENCE, Rate 50 g/ha): 0
- Plant response rating, Rice ([10]; Rate 200 g/ha, PREEMERGENCE): 2
- Plant response rating, Sorghum ([11]; 62 g/ha): 100
- Plant response rating, Sorghum ([11]; 250 g/ha): 100
- Plant response rating (0 to 100), Sorghum ([11]; Rate 4 g/ha): 20
- Plant response rating (0 to 100), Sorghum ([11]; Rate 16 g/ha): 50
- Plant response rating (0 to 100), Duck salad ([12]; POSTEMERGENCE section, flood test, Rate 4 g/ha): 0
- Plant response rating (0 to 100), Duck salad ([12]; Rate 16 g/ha, under POSTEMERGENCE head (flood test species)): 0
- Plant response rating Duck salad ([12]; 62 g/ha): 30
- Plant response rating Duck salad ([12]; 250 g/ha): 70
- Plant response rating Ryegrass ([13]; 62 g/ha): 60
- Plant response rating Ryegrass ([13]; 250 g/ha): 70
- Plant response rating (0 to 100), Ryegrass ([13]; Rate 4 g/ha): 20
- Plant response rating (0 to 100), Ryegrass ([13]; Rate 16 g/ha): 40
- Plant response rating (0 to 10 scale), Cotton ([14]; POSTEMERGENCE, Rate 50 g/ha): 10
- Plant response rating, Cotton ([14]; POSTEMERGENCE, Rate 200 g/ha): 10
- Plant response rating, Cotton ([14]; PREEMERGENCE, Rate 50 g/ha): 0
- Plant response rating, Cotton ([14]; Rate 200 g/ha, PREEMERGENCE): 0
- Plant response rating, Blackgrass ([15]; 62 g/ha): 50
- Plant response rating, Blackgrass ([15]; 250 g/ha): 70
- Plant response rating (0 to 100), Blackgrass ([15]; Rate 4 g/ha): 20
- Plant response rating (0 to 100), Blackgrass ([15]; Rate 16 g/ha): 30
- Plant response rating Pigweed ([16]; 62 g/ha): 100
- Plant response rating Pigweed ([16]; 250 g/ha): 100
- Plant response rating (0 to 100), Pigweed ([16]; Rate 4 g/ha): 100
- Plant response rating (0 to 100), Pigweed ([16]; Rate 16 g/ha): 100
- Plant response rating, Wheat ([17]; POSTEMERGENCE, Rate 50 g/ha): 7
- Plant response rating, Wheat ([17]; POSTEMERGENCE, Rate 200 g/ha): 9
- Plant response rating, Wheat ([17]; PREEMERGENCE, Rate 50 g/ha): 0
- Plant response rating, Wheat ([17]; Rate 200 g/ha, PREEMERGENCE): 2
- Plant response rating (0 to 10 scale), Blackgrass ([18]; POSTEMERGENCE, Rate 50 g/ha): 4
- Plant response rating, Blackgrass ([18]; POSTEMERGENCE, Rate 200 g/ha): 6
- Plant response rating, Blackgrass ([18]; PREEMERGENCE, Rate 50 g/ha): 2
- Plant response rating, Blackgrass ([18]; Rate 200 g/ha, PREEMERGENCE): 4

Reference: patent US6358885B1, “Substituted phenylheterocyclic herbicides” (Mississippi State University, priority 1992, dated 2002)
